Data reported in paper PMC10762035, “Molecular basis of human trace amine-associated receptor 1 activation” (Nature Communications, 2024).
Changes are numbered by the printed parent chain. Where “and” joins values, the source holds several entries; their conditions need not be identical. Equal values may be shown once. Read-outs that look alike come from different tables or passages of the source.

Experiments:
Assay type in all cases: cell-based
hTA1 S107C = target: T1, hTA1 S107C (Homo sapiens, UniProt Q96RJ0, S107C); experiment: GloSensor cAMP accumulation assay, S107C mutant;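 further: cells transiently co-expressing receptor and GloSensor biosensor, luminescence read after 30 min agonist exposure at room temperature, concentration-response fitted by nonlinear regression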
T1 construct: expressed in transfected cells; host or cells: HEK293T
T1 sequence (Q96RJ0 1-339 S107C): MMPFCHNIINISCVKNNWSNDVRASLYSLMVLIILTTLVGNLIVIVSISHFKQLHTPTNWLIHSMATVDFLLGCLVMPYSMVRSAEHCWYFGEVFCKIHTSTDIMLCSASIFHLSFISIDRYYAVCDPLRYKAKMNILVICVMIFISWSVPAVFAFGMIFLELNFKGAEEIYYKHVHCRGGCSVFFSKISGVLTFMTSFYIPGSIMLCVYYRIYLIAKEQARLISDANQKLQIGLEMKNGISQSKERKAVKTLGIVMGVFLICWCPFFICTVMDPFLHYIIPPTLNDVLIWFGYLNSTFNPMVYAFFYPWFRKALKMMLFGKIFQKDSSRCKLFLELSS

hTA1 C178S = target: T2, hTA1 C178S (Homo sapiens, UniProt Q96RJ0, C178S); experiment: GloSensor cAMP accumulation assay, C178S mutant; details: for C178S - Normalized Luminescence Counts (N=2): log[Compound], single replicates
T2 construct: expressed in transfected cells; host or cells: HEK293T
T2 sequence (Q96RJ0 1-339 C178S): T1 sequence (Q96RJ0 1-339 S107C) with C107S, C178S

hTA1 V184P = target: T3, hTA1 V184P (Homo sapiens, UniProt Q96RJ0, V184P); experiment: GloSensor cAMP accumulation assay, V184P mutant; details: hTA1 V184P (N=2), log[Compound]
T3 construct: expressed in transfected cells; host or cells: HEK293T
T3 sequence (Q96RJ0 1-339 V184P): T1 sequence (Q96RJ0 1-339 S107C) with C107S, V184P

Question: For `CCC(CC1COC(N)=N1)c1ccccc1` (stereo not shown) [Ro5256390], which EC50 (hTA1 S107C; EC50, S107C, n=2) is on record?
Answer: 504 nM

Question: What about the “decrease in potency vs wild type” value (hTA1 S107C; S107C) of the same compound?
Answer: approximately 100 fold

Question: What about the “ΔEmax values (each mutant value - WT average)” value (hTA1 S107C; S107C mutant minus WT average) of the same compound?
Answer: -34.2322

Question: And the “Emax values, Mean” value (hTA1 S107C; S107C mutant, β-PEA = 100, each line an independent experiment, 3 replicates)?
Answer: 69.072 and 124.486

Question: What about the Emax (hTA1 S107C; read-out: Span ± SEM (Emax normalized to β-PEA), S107C, n=2) of the same compound?
Answer: 88.8 ± 19.8%

Question: And the “ΔpEC50 values (each mutant value - WT average), Mean” value (hTA1 C178S; C178S, each row one experiment (N=2), 3 replicates)?
Answer: -0.5545 and -0.2923

Question: What about the Emax (hTA1 C178S; C178S, relative to β-PEA) of the same compound?
Answer: 120%

Question: What about the “Emax values, Mean” value (hTA1 C178S; C178S, β-PEA = 100, each row one experiment (N=2), 3 replicates) of the same compound?
Answer: 104.356 and 134.792

Question: And the EC50 (hTA1 C178S; EC50, C178S, n=2)?
Answer: 14.1 nM

Question: What about the “C178S - Normalized Luminescence Counts (N=2)” value (hTA1 C178S; M = -5) of the same compound?
Answer: 102.446 and 115.063 and 100.063 and 98.247 and 134.327 and 139.921

Question: And the “C178S - Normalized Luminescence Counts (N=2)” value (hTA1 C178S; M = -5.522)?
Answer: 112.587 and 101.839 and 98.2408 and 148.866 and 141.178 and 145.097

Question: What about the “C178S - Normalized Luminescence Counts (N=2)” value (hTA1 C178S; M = -6) of the same compound?
Answer: 99.8763 and 105.203 and 90.1566 and 163.316 and 171.125 and 157.632

Question: And the “C178S - Normalized Luminescence Counts (N=2)” value (hTA1 C178S; M = -6.522)?
Answer: 110.577 and 98.2408 and 97.8202 and 140.041 and 136.93 and 126.219

Question: What about the “C178S - Normalized Luminescence Counts (N=2)” value (hTA1 C178S; M = -7) of the same compound?
Answer: 89.6425 and 86.2313 and 90.5771 and 109.526 and 118.68 and 112.368

Question: And the “C178S - Normalized Luminescence Counts (N=2)” value (hTA1 C178S; M = -7.522)?
Answer: 61.5581 and 68.0535 and 67.1189 and 100.042 and 97.9478 and 96.7511

Question: What about the “C178S - Normalized Luminescence Counts (N=2)” value (hTA1 C178S; M = -8) of the same compound?
Answer: 35.9971 and 29.5951 and 33.2867 and 60.9705 and 68.8087 and 90.3489

Question: And the “C178S - Normalized Luminescence Counts (N=2)” value (hTA1 C178S; M = -8.522)?
Answer: 17.2585 and 16.3239 and 17.6791 and 41.704 and 41.2253 and 41.0458

Question: And the “C178S - Normalized Luminescence Counts (N=2)” value (hTA1 C178S; M = -9)?
Answer: 9.361 and 5.296 and 6.978 and 20.7921 and 25.9976 and 27.6132

Question: And the “C178S - Normalized Luminescence Counts (N=2)” value (hTA1 C178S; M = -9.522)?
Answer: 1.184 and 0.9499 and 2.959 and 8.825 and 6.193 and 11.0392

Question: And the “C178S - Normalized Luminescence Counts (N=2)” value (hTA1 C178S; M = -10)?
Answer: 1.651 and 2.539 and 1.885 and 5.9234 and 4.278 and 6.671

Question: What about the “C178S - Normalized Luminescence Counts (N=2)” value (hTA1 C178S; M = -10.522) of the same compound?
Answer: 0.4359 and -0.07812 and -0.265 and 1.256 and 0.02978 and 1.197

Question: And the “C178S - Normalized Luminescence Counts (N=2)” value (hTA1 C178S; M = -11)?
Answer: 0.9499 and 0.763 and 0.2957 and 5.146 and 2.064 and 5.0259

Question: What about the “C178S - Normalized Luminescence Counts (N=2)” value (hTA1 C178S; M = -11.522) of the same compound?
Answer: -0.4987 and 1.2303 and -0.03139 and 3.65 and 2.333 and 2.932

Question: And the “C178S - Normalized Luminescence Counts (N=2)” value (hTA1 C178S; M = -12)?
Answer: 0.2023 and 1.184 and 0.4359 and 4.098 and 3.021 and 6.312

Question: And the “C178S - Normalized Luminescence Counts (N=2)” value (hTA1 C178S; M = -12.522)?
Answer: 0.2023 and -0.1249 and -0.03139 and 3.321 and 2.124 and 7.958

Question: And the EC50 (hTA1 C178S; pEC50 values, Mean, C178S, each row one experiment (N=2), 3 replicates)?
Answer: 19.1 nM and 10.5 nM

Question: What about the Emax (hTA1 C178S; read-out: Span ± SEM (Emax normalized to β-PEA), C178S, n=2) of the same compound?
Answer: 120%

Question: And the “cAMP accumulation response, single replicate values (source data, Supplementary Figure 5)” value (from here on “cAMP accumulation response”) (hTA1 V184P; M = -5)?
Answer: 85.3904 and 101.684 and 66.3809 and 100.697 and 92.817 and 97.6917

Question: And the “cAMP accumulation response” value (hTA1 V184P; M = -5.522)?
Answer: 66.0899 and 55.7123 and 71.6182 and 88.7852 and 51.5463 and 90.3979

Question: What about the “cAMP accumulation response” value (hTA1 V184P; M = -6) of the same compound?
Answer: 83.0627 and 77.3404 and 73.6549 and 87.3191 and 55.1749 and 91.0943

Question: And the “cAMP accumulation response” value (hTA1 V184P; M = -6.522)?
Answer: 79.7651 and 75.3037 and 85.0024 and 81.1248 and 49.1639 and 85.8896

Question: And the “cAMP accumulation response” value (hTA1 V184P; M = -7)?
Answer: 89.6578 and 72.685 and 93.7313 and 87.2824 and 64.0448 and 74.7473

Question: And the “cAMP accumulation response” value (hTA1 V184P; M = -7.522)?
Answer: 94.3132 and 66.4779 and 74.3338 and 84.4969 and 64.0814 and 78.046

Question: What about the “cAMP accumulation response” value (hTA1 V184P; M = -8) of the same compound?
Answer: 62.0164 and 54.6454 and 40.6793 and 78.3026 and 66.3539 and 77.7161
